Experimental data from patent US8519163B2, “Anti-tumor activity of AECHL-1, novel triterpenoid isolated from Ailanthus excelsa in vitro and in vivo” (National Centre for Cell Science, priority 2008, dated 2013).

How the values were obtained:
[1] = system: cellular microtubule network; experiment: Immunocytochemistry, microtubule network in MCF-7 cells; assay type: cell-based, human; conditions: paclitaxel 1-20 μM, AECHL-1 2-40 μM, 24 h, confocal microscopy
Experimental: (§1) Immunocytochemistry was performed as described previously. […] Cells were incubated with primary anti-p53 antibodies (1:100; Abcam) and anti-α-tubulin antibodies (1:10000; Sigma chemical Co.) for 1 hour at room temperature. After washing with PBS, cells were incubated with CY2-conjugated secondary antibodies (1:200; Chemicon, Germany) and Alexa-conjugated secondary antibodies (1:10000; Sigma, St. Louis, Mo.) for 45 minutes and nuclear staining was done with DAPI. Images were captured under confocal microscope.
(§2) The tumor suppressor p53 plays a critical role in preventing human cancer formation. It translocates into the nucleus and works as a transcription factor by upregulating cell cycle regulatory proteins and induces cell cycle arrest and/or programmed cell death (apoptosis) (11). […] After 24 h of incubation, the p53 translocation in the nucleus (green fluorescence) and microtubule network (red fluorescence) was visualized by confocal microscopy.

[2] = system: MCF-7 human breast cancer; experiment: Cell viability (MTT) and proliferation ([3H]thymidine) assay; assay type: cell-based
Experimental: (§3) The cytotoxic effect of AECHL-1 on the HEK 293, B16F10, PC3, MCF 7 and MDA-MB-231 cells was measured by MTT assay as described in previous studies. The cells were dispensed in 96-well, flat bottom microtiter plates (Becton Dickinson Labware) at a density of 5×10^3 cells each well. […] MTT [3-(4,5-dimethylthiazol-2yl)-2,5-diphenyl tetrazolium bromide] solution (5 mg/ml in PBS) was added at the end of experiment to each well to a final concentration of 0.5 mg/ml, and the cultures were incubated for further 4 h. The resulting formazan crystals were dissolved in 100 μl dimethylsulfoxide (DMSO) and absorbance was measured in a microplate reader at 570 nm (Molecular Devices, Spectra MAX 250). The cytotoxic effect was expressed as a relative percentage of inhibition calculated as follows: Relative inhibition(%)=[(A570 control−A570 AECHL-1)A570 control]×100 Cell Proliferation Assay
(§4) Aliquots of complete medium containing 5×10^3 cells (B16F10, PC3, MDA-MB-231 and MCF-7 cells) were distributed into 96-well tissue culture plates. […] After 6 h incubation, 1 μCi [^3H]thymidine was added to each well. Cells were harvested after 24 and 48 hrs of treatment on a glass filter paper with a 96-well auto-harvester and the amount of incorporated [^3H]thymidine was determined with a β-counter (Canberra packard).

[3] = system: MDA-MB-231 human breast carcinoma; experiment: as above; assay type: cell-based; conditions: 12, 24 and 48 h, concentration and time dependent
Experimental: as §3, §4

[4] = system: B16F10 mouse melanoma cells; experiment: as above; assay type: cell-based; conditions: 12, 24 and 48 h, concentration and time dependent
Experimental: as §3, §4

[5] = system: PC3 human prostate cancer cells; experiment: as above; assay type: cell-based; conditions: 12, 24 and 48 h, concentration and time dependent
Experimental: as §3, §4

[6] = mouse, in vivo
Experimental: Next, we examined the effects of AECHL-1 on the growth of primary tumor allografts and xenografts of B16F10 cells growing in C57B1/6 mice and MCF-7 cells growing in athymic nude mice respectively. […] On this basis, we chose a dose that was 10-20% of this maximum tolerated dose or 50 and 100 μg/kg/day, i.p. or the doses which induced maximum cell death in vitro.

MCF-7 = experiment: In vivo xenograft tumor model; parameters: species or system athymic nude mice; conditions: for tumor size reduced by: MCF-7 xenograft
Experimental: (§5) The data reported for tumor volumes are expressed as mean±SEM. Statistical differences were determined by ANOVA and post test applied was Tukey-Kramer multiple comparison Test. For Tumor to body weight ratio post test applied was Dunnett multiple comparisons test.

B16F10 melanoma cells = experiment: In vivo allograft tumor model; parameters: species or system C57B1/6 mice; conditions: for tumor weight to body weight ratio: after 12 days treatment, vs control (p<0.01); for tumor size reduced by / tumor volume on day 24: B16F10 allograft; for tumor size reduced by: day 18; for histological examination of tumor tissue: C57 mice
Experimental: as §5

[7] = system: HEK 293 (Human embryonic kidney cell line); experiment: Cell viability assay (MTT); assay type: cell-based; conditions: HEK 293, compared with tumor cell lines
Experimental: as §3

B16F10 cells = experiment: Cell cycle analysis by flow cytometry; assay type: cell-based, mouse; conditions: for Phase of cell cycle (% of cells) G1 / Phase of cell cycle (% of cells) G2/M / Phase of cell cycle (% of cells) S / Phase of cell cycle (% of cells) Sub G0: 24 h
Experimental: The cell cycle analysis of MCF-7, B16F10 MDA-MB-231 and PC3 cells was done by flow cytometry. […] Cells were harvested with trypsin (0.05%), 0.02% EDTA, 0.05% glucose and a single-cell suspension was prepared. Cells were washed and were pelleted by centrifugation (1000×g for 2 min) and fixed in 70% ethanol while vortexing and stored at 4° C. for 1 hour. Fixed cells were pelleted by centrifugation, to remove ethanol and washed with PBS. Cells were re-suspended in PBS containing 50 μg/ml propidium iodide, 0.1 g/L RNase and 1% BSA, incubated for 30 min at 37° C. in the dark, and analyzed with flow cytometry (FACS Vantage-BD Sciences, USA) equipped with an argon laser at 488 nm. The data was analyzed using Cell Quest software for determining the percent population in different phases of cell cycle.

p53 = experiment: Immunocytochemistry, p53 translocation in MCF-7 cells; assay type: cell-based, human; conditions: AECHL-1 2-40 μM, 24 h, confocal microscopy
Experimental: as §1, §2

C=C1C(OCC)C2(O)OCC34C(=C(C)c5c(C)cc(O)c(OCC)c5C23)OC(=O)C(OC(=O)C(C)(O)CC)C14 (centres unmarked) [AECHL-1]
effect on microtubule network [1]: thickening and increased density of microtubules | percent viability and proliferation of the tumor cells ([2]; MCF-7, 12, 24 and 48 h, concentration and time dependent): significantly inhibited | inhibitory effect compared with reference drugs ([2]; MCF-7 cells, 10 μM, 48 h): stronger than that of Paclitaxel, or Cisplatin | percent viability and proliferation of the tumor cells [3]: significantly inhibited | percent viability and proliferation of the tumor cells [4]: significantly inhibited | percent viability and proliferation of the tumor cells [5]: significantly inhibited | maximum tolerated dose [6]: 500 μg/mice | tumor size reduced by (MCF-7; 5 μg/0.05 ml intra-tumor for 10 days): 35.72±0.05% | tumor size reduced by (MCF-7; 10 μg/0.05 ml intra-tumor for 10 days): 28.55±0.06% | tumor size reduced by (MCF-7; 20 μg/0.05 ml intra-tumor for 10 days): 4.1±0.27% | histological examination of tumor tissue (MCF-7; nude mice, 5 μg): decreased tumor cell density | tumor weight to body weight ratio (B16F10 melanoma cells; 50 μg): significant reduction | tumor weight to body weight ratio (B16F10 melanoma cells; 100 μg): significant reduction | tumor size reduced by (B16F10 melanoma cells; 50 μg intra-tumor for 12 days): 44.303±5.20% | tumor volume on day 24 (B16F10 melanoma cells; 50 μg): increased | tumor size reduced by (B16F10 melanoma cells; 100 μg intra-tumor for 12 days): 51.014±1.27% | tumor volume on day 24 (B16F10 melanoma cells; 100 μg): increased | histological examination of tumor tissue (B16F10 melanoma cells; 50 μg): Tumor cell density was found to be decreased with occurrence of picnotic/necrotic cells in the center of the tumor | histological examination of tumor tissue (B16F10 melanoma cells; 100 μg): increase in necrotic nuclei through out the tumor area, with disappearance of neovasulization and hemorrhagic areas | cytotoxicity in normal cells [7]: less cytotoxicity | Phase of cell cycle (% of cells) G1 (B16F10 cells; B16F10, 10 μM): 56.55% | Phase of cell cycle (% of cells) G2/M (B16F10 cells; B16F10, 10 μM): 23.02% | Phase of cell cycle (% of cells) S (B16F10 cells; B16F10, 10 μM): 20.46% | Phase of cell cycle (% of cells) Sub G0 (B16F10 cells; B16F10, 10 μM): 0.39% | Phase of cell cycle (% of cells) G1 (B16F10 cells; B16F10, 20 μM): 57.67% | Phase of cell cycle (% of cells) G2/M (B16F10 cells; B16F10, 20 μM): 23.60% | Phase of cell cycle (% of cells) S (B16F10 cells; B16F10, 20 μM): 18.40% | Phase of cell cycle (% of cells) Sub G0 (B16F10 cells; B16F10, 20 μM): 0.65% | Phase of cell cycle (% of cells) G1 (B16F10 cells; B16F10, 40 μM): 72.08% | Phase of cell cycle (% of cells) G2/M (B16F10 cells; B16F10, 40 μM): 14.73% | Phase of cell cycle (% of cells) S (B16F10 cells; B16F10, 40 μM): 11.43% | Phase of cell cycle (% of cells) Sub G0 (B16F10 cells; B16F10, 40 μM): 2.05% | Phase of cell cycle (% of cells) G1 (B16F10 cells; B16F10, 100 μM): 64.04% | Phase of cell cycle (% of cells) G2/M (B16F10 cells; B16F10, 100 μM): 13.23% | Phase of cell cycle (% of cells) S (B16F10 cells; B16F10, 100 μM): 15.41% | Phase of cell cycle (% of cells) Sub G0 (B16F10 cells; B16F10, 100 μM): 7.82% | phase of cell growth arrest (B16F10 cells; B16F10 cells): G0/G1 phase arrest | p53 translocation in the nucleus (p53): translocation of the p53 into the nucleus
